Measurements as given in ChEMBL document CHEMBL1201862, “PubChem BioAssay data set” (2004).
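Tested at 5 concentrations; 48 h exposure; 96-well plates; endpoints linearly interpolated, else capped at highest concentration. GI50: concentration for 50% inhibition of growth.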 The source made the active and inactive calls. Cut-off read from the data, not from the text of the source: active = GI50 up to about 1.1 µM and inactive = higher. Where a SMILES comes first, the peptide text is derived from it. The star is where a group is joined. Boc = CC(C)(C)OC(=O)*

Tests used:
Assay in all cases: NCI tumour cell line growth inhibition, 48 h
[1] = test system: NCI-H226
[2] = test system: NCI-H23
[3] = test system: RXF 393
[4] = test system: IGROV-1
[5] = test system: K562
[6] = test system: SR
[7] = test system: CCRF-CEM
[8] = test system: UACC-257
[9] = test system: T47D
[10] = test system: SNB-19
[11] = test system: MDA-N
[12] = test system: UO-31
[13] = test system: U-251
[14] = test system: A549
[15] = test system: HOP-62
[16] = test system: COLO 205
[17] = test system: RPMI-8226
[18] = test system: OVCAR-8
[19] = test system: A498
[20] = test system: NCI-H522

Structure (SMILES): COC(=O)C1(CCCCl)CCCN1C(=O)OC(C)(C)C (stereo not given)
- GI50 [1]: 75.5 µM (inactive)
- GI50 [2]: > 100 µM (inactive)
- GI50 [3]: > 100 µM (inactive)
- GI50 [4]: > 100 µM (inactive)
- GI50 [5]: 36.7 µM (inactive)
- GI50 [6]: 10.5 µM (inactive)
- GI50 [7]: 37.5 µM (inactive)
- GI50 [8]: > 100 µM (inactive)
- GI50 [9]: > 100 µM (inactive)
- GI50 [10]: > 100 µM (inactive)
- GI50 [11]: > 100 µM (inactive)
- GI50 [12]: > 100 µM (inactive)
- GI50 [13]: > 100 µM (inactive)
- GI50 [14]: > 100 µM (inactive)
- GI50 [15]: > 100 µM (inactive)
- GI50 [16]: > 100 µM (inactive)

Structure (SMILES): NC[C@H]1Nc2ccccc2[C@@H](O)C1O (stereo not given in full)
- GI50 [1]: > 100 µM (inactive)
- GI50 [2]: > 100 µM (inactive)
- GI50 [3]: > 100 µM (inactive)
- GI50 [4]: > 100 µM (inactive)
- GI50 [5]: > 100 µM (inactive)
- GI50 [17]: > 100 µM (inactive)
- GI50 [6]: > 100 µM (inactive)
- GI50 [7]: > 100 µM (inactive)
- GI50 [8]: > 100 µM (inactive)
- GI50 [9]: > 100 µM (inactive)
- GI50 [18]: > 100 µM (inactive)
- GI50 [10]: > 100 µM (inactive)
- GI50 [11]: > 100 µM (inactive)
- GI50 [12]: > 100 µM (inactive)
- GI50 [13]: > 100 µM (inactive)
- GI50 [14]: > 100 µM (inactive)
- GI50 [15]: > 100 µM (inactive)
- GI50 [16]: > 100 µM (inactive)

Structure (SMILES): COC(=O)[C@@H]1[C@H]2CC[C@]3(C)[C@@H](OC(C)=O)CC[C@H]3[C@@H]2CC[C@H]1C1(C)SCCS1
- GI50 [1]: 23.9 µM (inactive)
- GI50 [2]: 37.2 µM (inactive)
- GI50 [3]: 20.5 µM (inactive)
- GI50 [4]: 49.2 µM (inactive)
- GI50 [5]: 36.1 µM (inactive)
- GI50 [17]: 19.3 µM (inactive)
- GI50 [7]: 36.9 µM (inactive)
- GI50 [8]: 25.2 µM (inactive)
- GI50 [9]: 20.4 µM (inactive)
- GI50 [18]: 25 µM (inactive)
- GI50 [19]: 57.5 µM (inactive)
- GI50 [10]: 50.5 µM (inactive)
- GI50 [11]: 22 µM (inactive)
- GI50 [12]: 38.6 µM (inactive)
- GI50 [13]: 23.6 µM (inactive)
- GI50 [14]: 25.1 µM (inactive)
- GI50 [15]: 23.1 µM (inactive)
- GI50 [16]: 13.5 µM (inactive)
- GI50 [20]: 30.5 µM (inactive)

Structure (SMILES): CSc1nc2ccccc2c(=O)n1/N=C1\C(=O)N(CN2CCOCC2)c2ccc(Cl)cc21
- GI50 [1]: 53.3 µM (inactive)
- GI50 [2]: 21.8 µM (inactive)
- GI50 [3]: 18.1 µM (inactive)
- GI50 [4]: 16.8 µM (inactive)
- GI50 [5]: 5.77 µM (inactive)
- GI50 [7]: 10.6 µM (inactive)
- GI50 [8]: 19.8 µM (inactive)
- GI50 [9]: 16.5 µM (inactive)
- GI50 [18]: 39.6 µM (inactive)
- GI50 [19]: 26.2 µM (inactive)
- GI50 [10]: 46.8 µM (inactive)
- GI50 [11]: 31.8 µM (inactive)
- GI50 [12]: 28.1 µM (inactive)
- GI50 [13]: 32.5 µM (inactive)
- GI50 [14]: 35.4 µM (inactive)
- GI50 [15]: 34.3 µM (inactive)
- GI50 [16]: 17.1 µM (inactive)
- GI50 [20]: 31.1 µM (inactive)

Structure (SMILES): CC(=O)O[C@H]1[C@@H]2OC(=O)[C@@](O)(CC3CCCO3)[C@@H]2CC(=O)[C@](C)(O)CC/C=C(\C)CCC[C@@H]1C (stereo not given in full)
- GI50 [1]: 15.6 µM (inactive)
- GI50 [3]: 20 µM (inactive)
- GI50 [4]: 46.5 µM (inactive)
- GI50 [5]: 24.4 µM (inactive)
- GI50 [17]: 26.2 µM (inactive)
- GI50 [7]: 22.7 µM (inactive)
- GI50 [8]: 70.3 µM (inactive)
- GI50 [9]: 24.8 µM (inactive)
- GI50 [18]: 35.6 µM (inactive)
- GI50 [19]: > 100 µM (inactive)
- GI50 [10]: > 100 µM (inactive)
- GI50 [11]: 20.6 µM (inactive)
- GI50 [12]: 61.8 µM (inactive)
- GI50 [13]: 69.8 µM (inactive)
- GI50 [14]: 40.6 µM (inactive)
- GI50 [16]: 18.6 µM (inactive)
- GI50 [20]: 25.8 µM (inactive)

Structure (SMILES): CC(C)(C)c1ccc2c(c1)C#Cc1cc3c(cc1OCCCO2)C#Cc1cc(C(C)(C)C)ccc1OCCCO3
- GI50 [2]: 2.2 µM (inactive)
- GI50 [3]: > 100 µM (inactive)
- GI50 [4]: > 100 µM (inactive)
- GI50 [5]: > 100 µM (inactive)
- GI50 [17]: > 100 µM (inactive)
- GI50 [7]: 42.4 µM (inactive)
- GI50 [8]: > 100 µM (inactive)
- GI50 [9]: > 100 µM (inactive)
- GI50 [18]: > 100 µM (inactive)
- GI50 [19]: > 100 µM (inactive)
- GI50 [10]: > 100 µM (inactive)
- GI50 [11]: > 100 µM (inactive)
- GI50 [13]: > 100 µM (inactive)
- GI50 [14]: > 100 µM (inactive)
- GI50 [15]: > 100 µM (inactive)
- GI50 [16]: > 100 µM (inactive)
- GI50 [20]: > 100 µM (inactive)

Structure (SMILES): COC(=O)CNC(=O)C(Cc1ccccc1)NC(=O)C(CCSC)NC(=O)C(Cc1ccc(O)cc1)NC(=O)OC(C)(C)C (stereo not given) (Boc-YMFG-OMe; configuration not given here)
- GI50 [1]: > 100 µM (inactive)
- GI50 [2]: 56.1 µM (inactive)
- GI50 [3]: 47.6 µM (inactive)
- GI50 [4]: 62.7 µM (inactive)
- GI50 [5]: 49.8 µM (inactive)
- GI50 [17]: 22.3 µM (inactive)
- GI50 [8]: 19.1 µM (inactive)
- GI50 [9]: 32.4 µM (inactive)
- GI50 [18]: 39.9 µM (inactive)
- GI50 [19]: > 100 µM (inactive)
- GI50 [10]: 37.8 µM (inactive)
- GI50 [11]: 33.3 µM (inactive)
- GI50 [12]: > 100 µM (inactive)
- GI50 [13]: 41.6 µM (inactive)
- GI50 [14]: > 100 µM (inactive)
- GI50 [15]: 31.5 µM (inactive)
- GI50 [16]: 79.3 µM (inactive)
- GI50 [20]: 19.4 µM (inactive)

Structure (SMILES): O=C(O)c1ccc(Nc2ccnc3cc(Cl)ccc23)cc1O
- GI50 [1]: > 100 µM (inactive)
- GI50 [2]: > 100 µM (inactive)
- GI50 [3]: > 100 µM (inactive)
- GI50 [4]: > 100 µM (inactive)
- GI50 [5]: > 100 µM (inactive)
- GI50 [17]: > 100 µM (inactive)
- GI50 [7]: > 100 µM (inactive)
- GI50 [8]: > 100 µM (inactive)
- GI50 [9]: > 100 µM (inactive)
- GI50 [18]: > 100 µM (inactive)
- GI50 [19]: > 100 µM (inactive)
- GI50 [10]: > 100 µM (inactive)
- GI50 [11]: > 100 µM (inactive)
- GI50 [12]: > 100 µM (inactive)
- GI50 [13]: 95.1 µM (inactive)
- GI50 [14]: > 100 µM (inactive)
- GI50 [15]: 45.7 µM (inactive)
- GI50 [16]: > 100 µM (inactive)
- GI50 [20]: > 100 µM (inactive)

Structure (SMILES): Cc1cccc(/C=N/NC(=S)Nc2ccc(Cl)cc2)n1
- GI50 [2]: 4.38 µM (inactive)
- GI50 [4]: 0.811 µM (active)
- GI50 [5]: 0.329 µM (active)
- GI50 [17]: 1.14 µM (inactive)
- GI50 [6]: 0.778 µM (active)
- GI50 [7]: 0.695 µM (active)
- GI50 [8]: 3.13 µM (inactive)
- GI50 [9]: 0.611 µM (active)
- GI50 [18]: 3.74 µM (inactive)
- GI50 [10]: 2.31 µM (inactive)
- GI50 [11]: 0.308 µM (active)
- GI50 [12]: 1.87 µM (inactive)
- GI50 [13]: 2.19 µM (inactive)
- GI50 [14]: 1.93 µM (inactive)
- GI50 [15]: 1.08 µM (active)
- GI50 [16]: 0.658 µM (active)
- GI50 [20]: 0.177 µM (active)

Structure (SMILES): Cc1cccc(Nc2nc(NNC(=O)Cc3ccccc3)nc(NNC(=O)c3ccncc3)n2)c1
- GI50 [1]: > 10 µM (inactive)
- GI50 [2]: > 10 µM (inactive)
- GI50 [3]: > 10 µM (inactive)
- GI50 [4]: > 10 µM (inactive)
- GI50 [17]: > 10 µM (inactive)
- GI50 [6]: > 10 µM (inactive)
- GI50 [7]: > 10 µM (inactive)
- GI50 [8]: > 10 µM (inactive)
- GI50 [9]: > 10 µM (inactive)
- GI50 [18]: > 10 µM (inactive)
- GI50 [10]: > 10 µM (inactive)
- GI50 [11]: > 10 µM (inactive)
- GI50 [12]: > 10 µM (inactive)
- GI50 [14]: > 10 µM (inactive)
- GI50 [15]: > 10 µM (inactive)
- GI50 [16]: > 10 µM (inactive)
- GI50 [20]: > 10 µM (inactive)

Structure (SMILES): O=c1[nH]c(=O)n([C@H]2C[C@H](O)[C@@H](CO)O2)cc1Br [BROXURIDINE]
- GI50 [1]: > 100 µM (inactive)
- GI50 [2]: > 100 µM (inactive)
- GI50 [3]: > 100 µM (inactive)
- GI50 [4]: > 59.2 µM (inactive)
- GI50 [5]: > 72.4 µM (inactive)
- GI50 [17]: 49.9 µM (inactive)
- GI50 [7]: > 64.4 µM (inactive)
- GI50 [8]: > 100 µM (inactive)
- GI50 [9]: > 100 µM (inactive)
- GI50 [18]: > 100 µM (inactive)
- GI50 [19]: > 100 µM (inactive)
- GI50 [10]: > 100 µM (inactive)
- GI50 [11]: > 100 µM (inactive)
- GI50 [12]: > 100 µM (inactive)
- GI50 [13]: > 100 µM (inactive)
- GI50 [14]: > 100 µM (inactive)
- GI50 [15]: > 100 µM (inactive)
- GI50 [16]: > 100 µM (inactive)
- GI50 [20]: > 78.3 µM (inactive)
